Source: US6184246A, “Inhibition of cytokine production by polymethoxylated flavones” (priority 1999, dated 2001)
Entries after “also recorded” stand apart in the source; their conditions may differ. Where two headings read alike, the source gives them in different places.

Experiments:
[1] = tested on: TNFα; assay: TNFα production by LPS-stimulated human monocytes (ELISA); format: cell-based; details: for inhibition of TNFα production (in words): LPS-stimulated human monocytes; for IC50: Monocyte, human monocytes, 30 min preculture with compound, LPS, 14 h, 30% FCS, read-out: IC50 for inhibition of TNFα production
Experimental: Isolation of human peripheral blood monocytes: Peripheral blood mononuclear cells (PBMCs) were isolated from residual source leukocytes (Bonfils Blood Center, CO) by density gradient centrifugation using Ficoll-Paque Plus (Pharmacia, Sweden).
(§1) To measure the impact of the flavones on cytokine production, PBMCs were resuspended to 4×10^6 /mL in complete medium, i.e., Dulbecco's Modified Eagle Medium containing 30% FCS, 2 mM glutamine, 100 U/mL Penicillin-G, and 100 μg/mL streptomycin. […] Nonadherent cells (lymphocytes) were separated from the plastic adherent cells (monocytes) by washing the wells twice with 200 μL of medium. The monocytes were cultured an additional 30 min in 100 μL of complete medium containing graded concentrations of the compound of interest and the cultures were then adjusted to contain […] LPS to stimulate cytokine production. Culture supernatants were harvested 14 h later, and cells were lysed by addition of 50 μL of Dulbecco's phosphate buffered saline containing 1% NP40. Culture supernatants were evaluated for TNFα, IL-1β, IL-6, IL-8, IL-10, and MIP-1α content using specific enzyme-linked immunosorbent assays (ELISA) purchased from R&D Systems. IL-1β was measured in cell lysates by ELISA. Lactate dehydrogenase (LDH) content of cell lysates was measured to determine compound effects on cell viability: To 50 μL of lysate were added 200 μL of 50 mM sodium pyrophosphate buffer (pH 8.9) containing 50 mM lactic acid and 4 mg/mL β-nicotinamide adenine dinucleotide (Sigma); rates of reduction of nicotinamide adenine dinucleotide were measured at room temperature at 340 nm.

[2] = tested on: IL-10; assay: IL-10 production by LPS-stimulated human monocytes (ELISA); format: cell-based
Experimental: (§2) Adherent purified human monocytes were cultured in the presence of graded concentrations of heptamethoxyflavone for 30 min. The monocyte cultures were then adjusted to contain 20 ng/mL LPS. After 14 h of culture, the cytokines TNFα, IL-6, IL-8, MIP-1α, and IL-10 were assayed in the culture supernatants and IL-1β was assayed in the cell lysates using specific ELISA assays as described below. Values expressed as the percent of cytokine produced in flavone-free cultures are the means and standard errors determined using monocytes isolated from three independent donors.
(§3) Isolation of human peripheral blood monocytes: Peripheral blood mononuclear cells (PBMCs) were isolated from residual source leukocytes (Bonfils Blood Center, CO) by density gradient centrifugation using Ficoll-Paque Plus (Pharmacia, Sweden). Monocytes were purified further by plastic adherence (see below) or by centrifugal elutriation as described previously (Manthey, C. L., et al., J. Leuk Biol., 64: 409-416 (1998)).
(§4) IL-1β was measured in cell lysates by ELISA.

[3] = tested on: MIP-1α; assay: MIP-1α production by LPS-stimulated human monocytes (ELISA); format: cell-based
Experimental: as §2, §3, §4

[4] = tested on: IL-1β; assay: IL-1β production by LPS-stimulated human monocytes (ELISA, cell lysates); format: cell-based
Experimental: as §2, §3, §4

[5] = tested on: IL-6; assay: IL-6 production by LPS-stimulated human monocytes (ELISA); format: cell-based
Experimental: as §2, §3, §4

[6] = tested on: IL-8; assay: IL-8 production by LPS-stimulated human monocytes (ELISA); format: cell-based
Experimental: as §2, §3, §4

[7] = tested on: TNFα mRNA; assay: TNFα mRNA level by RT-PCR in LPS-stimulated monocytes; format: cell-based, human; details: graded concentrations, 20 ng/mL LPS, 90 min, GAPDH internal standard
Experimental: Primary elutriated human monocytes were cultured in the presence of graded concentrations of HMF for 30 min. The monocyte cultures were then adjusted to contain 20 ng/mL LPS. At 90 min of culture, monocytes were harvested by centrifugation, and RNA was isolated from the cell pellet. Relative levels of TNFα and the constitutively expressed glyceraldehyde 3-phosphate dehydrogenase (GAPDH) mRNA were determined by RT-PCR as described below.
Analysis of specific mRNA levels by reverse transcriptase-polymerase chain reaction (RT-PCR): Monocytes were purified from PBMC by centrifugal elutriation. Monocytes were resuspended to 5×10^6 /mL in complete medium and 2 mL of cell suspension were dispensed into FALCON 17×100 mm polypropylene culture tubes (Becton Dickinson). Cultures were adjusted to contain graded concentrations of HMF and cultured 30 min at 37° C. and 5% CO2. Cultures were then adjusted to contain 20 ng/mL LPS for an additional 90 min. […] Relative levels of TNFα and IL-1β mRNA were then measured by RT-PCR as previously described (Manthey, C. L., J. Leuk Biol. 1998, 64: 409-416). […] Radiolabeled products were resolved by agarose gel electrophoresis and quantified using a PhosphorImager (Molecular Dynamics, Sunnyvale, Calif.). […]

[8] = tested on: IL-1β mRNA; assay: IL-1β mRNA level by RT-PCR in LPS-stimulated monocytes; format: cell-based, human; details: data not shown
Experimental: Analysis of specific mRNA levels by reverse transcriptase-polymerase chain reaction (RT-PCR): Monocytes were purified from PBMC by centrifugal elutriation. Monocytes were resuspended to 5×10^6 /mL in complete medium and 2 mL of cell suspension were dispensed into FALCON 17×100 mm polypropylene culture tubes (Becton Dickinson). Cultures were adjusted to contain graded concentrations of HMF and cultured 30 min at 37° C. and 5% CO2. Cultures were then adjusted to contain 20 ng/mL LPS for an additional 90 min. Culture media was then removed and monocytes were lysed in RNAzol (Teltext Inc., Friendswood, Tex.) and total RNA was isolated according to the manufacturer's instructions. Relative levels of TNFα and IL-1β mRNA were then measured by RT-PCR as previously described (Manthey, C. L., J. Leuk Biol. 1998, 64: 409-416). PCR was carried out in the presence of [α-^32 P]dCTP. Radiolabeled products were resolved by agarose gel electrophoresis and quantified using a PhosphorImager (Molecular Dynamics, Sunnyvale, Calif.). For these reactions, the following primer sets were used:
IL-1β, (5'): GACACATGGGATAACGAGGCT, (3'): ACGCAGGACAGGTACAGATTC.

[9] = tested on: type-IV phosphodiesterase semi-purified from U937 cells; assay: Phosphodiesterase cAMP SPA enzyme assay; format: biochemical; details: hydrolysis of cAMP; read-out: concentration inhibiting phosphodiesterase activity 50%
Experimental: PDE semipurified from U937 monocytic cells was evaluated for the ability to catalyze the hydrolysis of cAMP in the presence of graded concentrations of flavone, myricetin, and HMF as described below. The rates are plotted as percent of control-reactions, where no flavonoids were present. Testing flavones as phosphodiesterase inhibitors and inducers of cellular cyclic adenosine monophosphate (cAMP): The Phosphodiesterase cAMP SPA Enzyme Assay (Amersham, Arlington Heights, Ill.) was used to test the ability of flavones to inhibit cAMP hydrolysis catalyzed by phosphodiesterase. The phosphodiesterase used in this study was semi-purified from U937 cells, and was determined to be mostly the type-IV isoform based on sensitivity to selected isoform inhibitors (Trophy, T. J., J. Pharmacol. Experimental Therapeutics, 1195-1205 (1992)).

[10] = tested on: intracellular cAMP; assay: Cellular cAMP in human monocytes (EIA); format: cell-based; details: 100 μM, 30 min; for intracellular cAMP level: media alone 2.7±0.9
Experimental: To test flavones for the ability to cause an increase in cellular cAMP, monocytes were purified from PBMC by centrifugal elutriation. Monocytes were resuspended to 5×10^6 /mL in complete medium and 2 mL cell suspension were dispensed into FALCON 17×100 mm polypropylene culture tubes (Becton Dickinson). The cells were precultured 2 h at 37° C. and 5% CO2, and then cultured an additional 30 min following adjusting culture media to contain 100 μM of the flavone of interest or 200 μM IBMX (3-isobutyl-1-methylxanthine). Cells were then collected by centrifugation, lysed in 300 μL of ice cold aqueous solution containing 10 mM HEPES (pH 7.6) and 1% NP40. The lysates were applied to 100 mg columns of Amprep SAX resin (Amersham). The columns were then rinsed with 1 mL of methanol and the cAMP was eluted in 600 μL of methanol containing 0.01 M HCl. The eluates were chilled on dry ice and dried under vacuum. The Amersham Biotrak cAMP EIA assay was used to measure cAMP content of residues resuspended in 400 μL of assay buffer.

[11] = tested on: human monocytes; assay: Cytotoxicity by LDH content of monocyte lysates
Experimental: as §1

[12] = tested on: TNFα; details: mice, cited from earlier work
[13] = cytokine suppression profile, HMF compared against IBMX (Table 2)

COc1ccc(-c2oc3c(OC)c(OC)c(OC)c(OC)c3c(=O)c2OC)cc1OC [HMF, 3,5,6,7,8,3',4'-heptamethoxyflavone]
inhibition of TNFα production (in words) [1]: potent inhibitor | IC50 [1]: 5 µM | inhibition of IL-10 production (in words) ([2]; LPS-stimulated human monocytes): potent inhibitor; also recorded: inhibition | IC50 ([2]; Monocyte, monocytes from three independent human donors, LPS, 14 h, read-out: IC50 for inhibition of IL-10): 12.3 ± 3.5 µM | inhibition of MIP-1α production (in words) ([3]; LPS-stimulated human monocytes): potent inhibitor | IC50 ([3]; Monocyte, monocytes from three independent human donors, LPS, 14 h, read-out: IC50 for inhibition of MIP-1α): 7.3 ± 0.7 µM | inhibition of lipopolysaccharide-induced expression of IL-1β ([4]; 100 μM): no inhibition | suppression of IL-1β production [4, 13]: neither suppressed | inhibition of lipopolysaccharide-induced expression of IL-6 ([5]; 100 μM): no inhibition | activation at 100 µM ([5]; Homo sapiens, Monocyte, 14 h, 100 μM, read-out: increase of IL-6 expression): 30% | suppression of IL-6 production [5, 13]: neither suppressed | inhibition of lipopolysaccharide-induced expression of IL-8 ([6]; 100 μM): no inhibition | suppression of IL-8 production [6, 13]: neither suppressed | suppression of lipopolysaccharide-induced TNFα mRNA expression [7]: suppress; also recorded: selectively blocks | induction of IL-1β mRNA [8]: not effected | IC50 [9]: 2 µM | increase of monocyte cAMP levels over media alone (in words) [10]: at least a doubling | intracellular cAMP level [10]: 5.7±1.8 pmol/10^7 cells

O=c1c(O)c(-c2cc(O)c(O)c(O)c2)oc2cc(O)cc(O)c12 [myricetin]
inhibition of TNFα production (in words) [1]: lacked activity; also recorded: much less active | cytotoxicity towards cultured human monocytes (depletion of cellular LDH activity) ([11]; human monocytes, LDH content of cell lysates): lacked activity and any associated cytotoxicity | IC50 [9]: 16 µM | increase of monocyte cAMP levels over media alone (in words) [10]: much less | intracellular cAMP level [10]: 3.7±1.0 pmol/10^7 cells

C[C@@H]1O[C@@H](O[C@H]2[C@H](Oc3cc(O)c4c(c3)O[C@H](c3ccc(O)cc3)CC4=O)O[C@H](CO)[C@@H](O)[C@@H]2O)[C@H](O)[C@H](O)[C@H]1O [naringin]
IC50 [1]: > 200 µM | cytotoxicity towards cultured human monocytes (depletion of cellular LDH activity) [11]: no cytotoxicity | liver injury ([12]; lipopolysaccharide-induced): suppress | lipopolysaccharide-induced TNFα release [12]: suppress
